The assay can be described thus: Antagonist activity at CRTh2 receptor in human eosinophil assessed as inhibition of PGD2-induced cell shape change.
As to `CCN(Cc1cc(C(F)(F)F)ccc1-c1cc(CC(=O)O)cc2cnn(C)c12)C(=O)C1CC1`, the IC50 came out at 58 nM.
With `CCN(Cc1cc(C(F)(F)F)ccc1-c1cc(CC(=O)O)cc2cn(C)nc12)C(=O)C1CC1`, the half-inhibitory concentration (IC50) is 43 nM.
Consider `CCN(Cc1cc(C(F)(F)F)ccc1-c1cn(CC(=O)O)c2ccccc12)C(=O)C1CC1`, for which the 50% inhibitory concentration (IC50) amounted to 63 nM.
Take `CCN(Cc1cc(C(F)(F)F)ccc1-c1cn(CC(=O)O)c2cccnc12)C(=O)C1CC1`: the IC50 worked out at 14 nM.
Turning to `CCN(Cc1cc(C(F)(F)F)ccc1-c1cn(CC(=O)O)c2ccncc12)C(=O)C1CC1`, the 50% inhibitory concentration (IC50) stood at 8 nM.
The figure for `CCN(Cc1cc(C(F)(F)F)ccc1-n1cc(CC(=O)O)c2cccnc21)C(=O)C1CC1` is 20 nM.
Regarding `CCN(Cc1cc(C(F)(F)F)ccc1-c1cc(CC(=O)O)c2ccncn12)C(=O)C1CC1`, the IC50 was found to be 19 nM.
Regarding `CCN(Cc1cc(C(F)(F)F)ccc1-c1nc(CC(=O)O)c2ccccn12)C(=O)C1CC1`, the IC50 was determined as 94 nM.
The figure for `CCN(Cc1cc(C(F)(F)F)ccc1-c1cc(CC(=O)O)ccc1OC)C(=O)C1CC1` is 13 nM.

These data come from BindingDB's records for doi:10.1016/j.bmcl.2014.09.005 (Rhône-Poulenc Rorer, 2014).
